According to PubChem BioAssay AID1963441 (Molecular Pharmacology Branch, DTP, NCI, 2024):
Each block holds one compound with its values, some of them ahead of it.

Test system: NCI-H1876 complex spheroid growth, % test/control
Assay: Anticancer human tumor NCI-H1876 cell line growth inhibition [Asc];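 also: compound exposure lasted 7 days starting three days after seeding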;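 as to viability, T/C: 100% = DMSO vehicle control wells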
Settings: for viability, T/C: stronger effect = lower value
Protocol: Multicellular complex tumor spheroid response to apoptosis pathway targeting inhibitors Alrizomadlin, Pelcitoclax, and Dasminapant in combination with a variety of drugs and investigational agents in selected tumor cell lines
The MDM2 inhibitor alrizomadlin, the Bcl-2/Bcl-xL inhibitor pelcitoclax, and the IAPs inhibitor dasminapant were evaluated both individually and in combination with standard of care and investigational anticancer small molecules within a complex spheroid model of solid tumors. . Complex spheroids include a stromal component modeled by human endothelial cells (HUVEC) and fibroblasts modeled by human mesenchymal stem cells (MSCs). The concentration ranges selected for each drug and investigational agent were based upon clinically achievable concentrations if the clinical Cmax of the agent was known.
Compounds. The drugs and investigational agents: alrizomadlin (APG-115; NSC831270), pelcitoclax (APG-1252; NSC835773), dasminapant (APG-1387;NSC834197), TAK-243 (NSC785004), copanlisib (NSC809693), olaparib (NSC753686), talazoparib (NSC767125), cobimetinib (NSC 768068), eltanexor (KPT-8602, NSC 794443), abemaciclib (NSC 768073), sotorasib (NSC818433), adagrasib (NSC 831453), MRTX-1133 (NSC 836407), Iadademestat (ORY1001, NSC 806812), and RMC-4630 (NSC839698), were obtained from the NCI Developmental Therapeutics Program Chemical Repository. The FDA-approved anticancer drug set is available from the Developmental Therapeutics Program at https://dtp.cancer.gov/organization/dscb/obtaining/available plates.htm. […] The stock solutions were prepared in dimethyl sulfoxide (DMSO, Sigma-Aldrich, St. Louis, MO, cat. D2650) at 800-fold the tested concentration and stored at -70 degrees C prior to their use. All drugs and investigational agents were tested over a range starting from a high concentration at or near the clinical Cmax and decreasing in half-log increments. If the clinical Cmax for an agent had not been determined, the highest concentration tested was 10 microM.
The patient-derived cancer (PDC) cell lines include five colon adenocarcinomas: 186277-243-T-J2-PDC, 616215-338-R-J1-PDC, 439559-082-T-J2-PDC, 463943-066-T-J2-PDC, and 519858-162-T-J1-PDC; three pancreatic carcinomas: 323965-272-R-J2-PDC, 521955-158-R6-J3-PDC, and 521955-158-R2-J5-PDC; two uterine sarcomas: 327498-152-R-J2-PDC and 993429-296-R-J1-PDC; two rhabdomyosarcomas: 755483-174-R-J1-PDC and 772245-204-R-J1-PDC; two soft tissue sarcomas: 126254-015-R-J1-PDC and 494315-158-R-J1-PDC; two malignant fibrous histiocytomas: 317291-083-R-J1-PDC and 596521-263-R-J1-PDC; two breast carcinomas: 171881-019-R-J1-PDC and 885512-296-R-J2-PDC; and one ovarian carcinoma: 6556581-035-R-J-PDC were obtained from the NCI PDMR, (https://pdmr.cancer.gov). The established cell lines HSSY-2 synovial sarcoma (RRID:CVCL 8719), SYO-1 synovial sarcoma (RRID:CVCL_7146), MPNST malignant peripheral neural sheath tumor were obtained from the Sloan Kettering Institute. The following established cell lines were purchased from the American Type Culture Collection (ATCC, Manassas, VA), Sor the received from the NCI repository:, PANC-1 pancreatic carcinoma (CRL-1469, RRID:CVCL_0480), OVCAR-5 ovarian carcinoma (RRID:CVCL_1628), OVCAR-8 ovarian carcinoma (RRID:CVCL_1629), , MCF-7 breast carcinoma (CRL-12584, RRID:CVCL_0031), MDA-MB-231 breast carcinoma (CRL-12532, RRID:CVCL_0062), NCI-H1876 small cell lung carcinoma (CRL-5902, RRID:CVCL_1503), NCI-H510A small cell lung carcinoma (HTB-184, RRID:CVCL_1565), NCI-H1417 (CRL-5869, RRID:CVCL_1469), and NCI-H196 small cell lung carcinoma (CRL-5823, RRID:CVCL_1509). Dr. Peter Houghton (Greehey Children's Cancer Research Institute, University of Texas Health Science Center, San Antonio, TX) provided Rh-18 rhabdomyosarcoma (RRID:CVCL_1659). Pooled donor human umbilical vein endothelial cells (HUVEC, Lonza, cat. CC-2519) and human mesenchymal stem cells (hMSC, Lonza, cat. PT-2501) were purchased from Lonza (Walkersville, MD).
Cell Culture. […]

IC50 (compound alone, run of 11/07/2022): > 10 µM
SMILES: Cc1c(S(C)(=O)=O)c(-c2cc(F)cc(N3CCN(c4ccc(NS(=O)(=O)c5ccc(NC(CCN6CCC(C(=O)OCCCP(=O)(O)O)CC6)CSc6ccccc6)c(S(=O)(=O)C(F)(F)F)c5)cc4)CC3)c2)c(-c2ccc(Cl)cc2)n1C(C)C (centres undefined)
viability, T/C (compound 0.0316 µM): 109% [middle of 7 runs] | viability, T/C (compound 0.1 µM): 101% [middle of 7 runs] | viability, T/C (compound 0.316 µM): 96.3% [middle of 7 runs] | viability, T/C (compound 1 µM): 90.5% [middle of 7 runs] | viability, T/C (compound 3.16 µM): 95.5% [middle of 7 runs] | viability, T/C (compound 10 µM): 102% [middle of 7 runs]

IC50 (curve of first compound, second compound 0.00316 µM): > 10 µM | IC50 (curve of first compound, second compound 0.01 µM): > 10 µM | IC50 (curve of first compound, second compound 0.0316 µM): > 10 µM | IC50 (curve of first compound, second compound 0.1 µM): > 10 µM | IC50 (curve of first compound, second compound 0.316 µM): > 10 µM | IC50 (curve of first compound, second compound 1 µM): > 10 µM
SMILES: C=CC(=O)N1CCN(c2nc(=O)n(-c3c(C)ccnc3C(C)C)c3nc(-c4c(O)cccc4F)c(F)cc23)C(C)C1 (centres undefined) + CNC(C)C(=O)NC1CN(S(=O)(=O)c2cccc(S(=O)(=O)N3CCC4CCC(C(=O)NC(c5ccccc5)c5ccccc5)N4C(=O)C(NC(=O)C(C)NC)C3)c2)CCC2CCC(C(=O)NC(c3ccccc3)c3ccccc3)N2C1=O
viability, T/C (second compound 0.00316 µM, first compound 0.0316 µM): 103% | viability, T/C (second compound 0.00316 µM, first compound 0.1 µM): 87.6% | viability, T/C (second compound 0.00316 µM, first compound 0.316 µM): 115% | viability, T/C (second compound 0.00316 µM, first compound 1 µM): 94.9% | viability, T/C (second compound 0.00316 µM, first compound 3.16 µM): 121% | viability, T/C (second compound 0.00316 µM, first compound 10 µM): 131% | viability, T/C (second compound 0.01 µM, first compound 0.0316 µM): 104% | viability, T/C (second compound 0.01 µM, first compound 0.1 µM): 99% | viability, T/C (second compound 0.01 µM, first compound 0.316 µM): 99.1% | viability, T/C (second compound 0.01 µM, first compound 1 µM): 99.3% | viability, T/C (second compound 0.01 µM, first compound 3.16 µM): 107% | viability, T/C (second compound 0.01 µM, first compound 10 µM): 111% | viability, T/C (second compound 0.0316 µM, first compound 0.0316 µM): 102% | viability, T/C (second compound 0.0316 µM, first compound 0.1 µM): 101% | viability, T/C (second compound 0.0316 µM, first compound 0.316 µM): 121% | viability, T/C (second compound 0.0316 µM, first compound 1 µM): 102% | viability, T/C (second compound 0.0316 µM, first compound 3.16 µM): 116% | viability, T/C (second compound 0.0316 µM, first compound 10 µM): 114% | viability, T/C (second compound 0.1 µM, first compound 0.0316 µM): 100% | viability, T/C (second compound 0.1 µM, first compound 0.1 µM): 106% | viability, T/C (second compound 0.1 µM, first compound 0.316 µM): 104% | viability, T/C (second compound 0.1 µM, first compound 1 µM): 106% | viability, T/C (second compound 0.1 µM, first compound 3.16 µM): 114% | viability, T/C (second compound 0.1 µM, first compound 10 µM): 106% | viability, T/C (second compound 0.316 µM, first compound 0.0316 µM): 114% | viability, T/C (second compound 0.316 µM, first compound 0.1 µM): 101% | viability, T/C (second compound 0.316 µM, first compound 0.316 µM): 100% | viability, T/C (second compound 0.316 µM, first compound 1 µM): 101% | viability, T/C (second compound 0.316 µM, first compound 3.16 µM): 115% | viability, T/C (second compound 0.316 µM, first compound 10 µM): 109% | viability, T/C (second compound 1 µM, first compound 0.0316 µM): 111% | viability, T/C (second compound 1 µM, first compound 0.1 µM): 91.9% | viability, T/C (second compound 1 µM, first compound 0.316 µM): 118% | viability, T/C (second compound 1 µM, first compound 1 µM): 113% | viability, T/C (second compound 1 µM, first compound 3.16 µM): 116% | viability, T/C (second compound 1 µM, first compound 10 µM): 117%
